Results on 1 compound are retold here after paper PMC9745797 (2022).

The subject of assay [1] is 5′-d(CGCATATATGCG)-3′ (DNA, duplex) CGCATATATGCG
Put plainly: native nESI-MS. The following applies: K+ 100 μM (KCl), NH4+ 150 mM; 150 mM ammonium acetate, pH 7, 1% DMSO; 9 μM DNA, 100 μM compound.

Assay [2] shares this test system. Nature of the assay: 1H NMR titration and NOESY. The following applies: 50 mM phosphate pH 7.4, 9:1 H2O/D2O, 298 K (cooled to 274 K); 1 mM duplex; slow exchange.

Turning to `Cn1cc(NC(=O)c2cc(NC(=O)c3ccc(/C=C/c4cnc5ccccc5c4)cc3)cn2C)cc1C(=O)NCCN1CCOCC1`, the binding entry in assay [1] and in assay [2] was “yes” throughout.
